The source of these data is patent publication US11634393B2, “Substituted tolyl fungicides” (FMC CORPORATION, priority 2018, dated 2023).

One test deals with Phakopsora pachyrhizi. The test is described as follows: Test D: Asian soybean rust, spray on soybean seedlings, disease control rating. It is filed as in vivo. Particulars: Rate 10 ppm, 100 = 100% disease control, 0 = no disease control relative to the controls; for pest or weed control at 10 ppm: Phakopsora pachyrhizi, 216 h. The text has this:
(§1) General protocol for preparing test suspensions for Tests A-F: the test compounds were first dissolved in acetone in an amount equal to 3% of the final volume and then suspended at the desired concentration (in ppm) in acetone and purified water (50/50 mix by volume) containing 250 ppm of the surfactant PEG400 (polyhydric alcohol esters). The resulting test suspensions were then used in Tests A-F.
The test solution was sprayed to the point of run-off on soybean seedlings. The following day the seedlings were inoculated with a spore suspension of Phakopsora pachyrhizi (the causal agent of Asian soybean rust) and incubated in a saturated atmosphere at 22° C. for 24 h and then moved to a growth chamber at 22° C. for 8 days, after which time visual disease ratings were made.
(§2) A rating of 100 indicates 100% disease control and a rating of 0 indicates no disease control (relative to the controls). A dash (-) indicates the compound was not tested.

The subject of test [1] is Puccinia recondita f. sp. tritici. The test is described as follows: Test B: wheat leaf rust, spray on wheat seedlings, disease control rating. Format: in vivo. Particulars: Rate 10 ppm, 100 = 100% disease control, 0 = no disease control relative to the controls; for pest or weed control at 10 ppm: Puccinia recondita, 192 h.
Excerpt: as §1
The test solution was sprayed to the point of run-off on wheat seedlings. The following day the seedlings were inoculated with a spore suspension of Puccinia recondita f. sp. tritici (the causal agent of wheat leaf rust) and incubated in a saturated atmosphere at 20° C. for 24 h, and then moved to a growth chamber at 20° C. for 7 days, after which time disease ratings were made.
as §2

Each structure is given as a SMILES string.

Consider `C#Cc1cc(F)c(-n2ccc(-c3ccc(C)c(CNC(=O)OC)c3)n2)c(F)c1` [Compound 53, methyl N-[[5-[1-(4-ethynyl-2,6-difluorophenyl)-1H-pyrazol-3-yl]-2-methylphenyl]methyl]carbamate], for which the pest or weed control at 10 ppm (in the test on Phakopsora pachyrhizi; in test [1]) was 100% throughout.
With `COC(=O)NCc1cc(-c2ccn(-c3c(Cl)cc([N+](=O)[O-])cc3Cl)n2)ccc1C` [Compound 54], the pest or weed control at 10 ppm (in the test with Phakopsora pachyrhizi; in test [1]) was 0% in each case.
`COC(=O)NCc1cc(-c2ccn(-c3c(Cl)cc(N)cc3Cl)n2)ccc1C` [Compound 55]: the pest or weed control at 10 ppm (in the test with Phakopsora pachyrhizi; in test [1]) was 0% each time.
Regarding `COC(=O)NCc1cc(-c2ccn(-c3c(Cl)cc(Br)cc3Cl)n2)ccc1C` [Compound 56], the pest or weed control at 10 ppm in the test on Phakopsora pachyrhizi was found to be 100%; in test [1], 80%.
In the same order, the values of `COC(=O)NCc1cc(-c2ccn(-c3c(Cl)cc(Cl)cc3Cl)n2)ccc1C` [Compound 57] are 100% and 74%.
The corresponding values for `COC(=O)NCc1cc(-c2ccn(-c3c(Br)cccc3Br)n2)ccc1C` [Compound 58] are 100% and 68%.
Take `COC(=O)NCc1cc(-c2ccn(-c3c(Cl)cccc3I)n2)ccc1C` [Compound 59]: the pest or weed control at 10 ppm worked out at 87% in the test on Phakopsora pachyrhizi and 45% in test [1].
In the same order, the values of `COC(=O)NCc1cc(-c2ccn(-c3c(Cl)cccc3Br)n2)ccc1C` [Compound 60] are 100% and 68%.
In the same order, the values of `COC(=O)NCc1cc(-c2ccn(-c3c(C)cccc3Br)n2)ccc1C` [Compound 61] are 97% and 68%.
As for `C=C(C)c1cc(F)c(-n2ccc(-c3ccc(C)c(CNC(=O)OC)c3)n2)c(F)c1` [Compound 62], the “Test D disease control rating” value in the test on Phakopsora pachyrhizi worked out at 100%. Besides, in test [1], the “Test B disease control rating” value was determined as 99%.
`COC(=O)NCc1cc(-c2ccn(-c3c(Cl)cc(C4CC4)cc3Cl)n2)ccc1C` [Compound 65, methyl N-[[5-[1-(2,6-dichloro-4-cyclopropylphenyl)-1H-pyrazol-3-yl]-2-methylphenyl]methyl]carbamate]: the pest or weed control at 10 ppm in the test on Phakopsora pachyrhizi worked out at 100%; in test [1] it was 97%.
In the same order, the values of `COC(=O)NCc1cc(-c2ccn(-c3c(F)cc(C=O)cc3F)n2)ccc1C` [Compound 67, methyl N-[[5-[1-(2,6-difluoro-4-formylphenyl)-1H-pyrazol-3-yl]-2-methylphenyl]methyl]carbamate] are 12% and 0%.
The corresponding values for `COC(=O)NCc1cc(-c2ccn(-c3c(F)cc(C(C)=O)cc3F)n2)ccc1C` [Compound 68, methyl N-[[5-[1-(4-acetyl-2,6-difluorophenyl)-1H-pyrazol-3-yl]-2-methylphenyl]methyl]carbamate] are 71% and 74%.
Consider `COC(=O)NCc1cc(-c2ccn(-c3c(F)cc(C(C)=NO)cc3F)n2)ccc1C` [Compound 69], for which, in the test with Phakopsora pachyrhizi, the “Test D disease control rating” value worked out at 97%. Moreover, in test [1], the “Test B disease control rating” value was 99%.
In the case of `COC(=O)NCc1cc(-c2ccn(-c3c(F)cc(C(=O)OC)cc3F)n2)ccc1C` [Compound 70, methyl 3,5-difluoro-4-[3-[3-[[(methoxycarbonyl)amino]methyl]-4-methylphenyl]-1H-pyrazol-1-yl]benzoate], the pest or weed control at 10 ppm stood at 81% in the test on Phakopsora pachyrhizi and 74% in test [1].
Turning to `COC(=O)NCc1cc(-c2ccn(-c3c(F)cc(CO)cc3F)n2)ccc1C` [Compound 71, methyl N-[[5-[1-[2,6-difluoro-4-(hydroxymethyl)phenyl]-1H-pyrazol-3-yl]-2-methylphenyl]methyl]carbamate], the pest or weed control at 10 ppm came to 25% in the test on Phakopsora pachyrhizi and 0% in test [1].
Take `COC(=O)NCc1cc(-c2ccn(-c3c(F)cc(C=NO)cc3F)n2)ccc1C` [Compound 72]: the “Test D disease control rating” value in the test on Phakopsora pachyrhizi stood at 77%. Moreover, the “Test B disease control rating” value in test [1] was 100%.
For `COC(=O)NCc1cc(-c2ccn(-c3c(F)cc(OCF)cc3F)n2)ccc1C` [Compound 73], the pest or weed control at 10 ppm (in the test on Phakopsora pachyrhizi; in test [1]) was 100% in each case.
Turning to `COC(=O)NCc1cc(-c2ccn(-c3c(F)cc(CC(C)=O)cc3F)n2)ccc1C` [Compound 75], the “Test D disease control rating” value in the test on Phakopsora pachyrhizi is 87%. Further, the “Test B disease control rating” value in test [1] worked out at 0%.
In the same order, the values of `COC(=O)NCc1cc(-c2ccn(-c3c(F)cc(C(OC)C(C)=O)cc3F)n2)ccc1C` (stereo not drawn) [Compound 76] are 100% and 68%.
Regarding `COC(=O)NCc1cc(-c2ccn(-c3c(F)cc(CF)cc3F)n2)ccc1C` [Compound 77], the pest or weed control at 10 ppm (in the test on Phakopsora pachyrhizi; in test [1]) was 100% each time.
On to `COC(=O)NCc1cc(-c2ccn(-c3c(F)cc(OC(F)(F)F)cc3F)n2)ccc1C` [Compound 78, methyl N-[[5-[1-[2,6-difluoro-4-(trifluoromethoxy)phenyl]-1H-pyrazol-3-yl]-2-methylphenyl]methyl]carbamate], for which the pest or weed control at 10 ppm (in the test with Phakopsora pachyrhizi; in test [1]) was 100% in each case.
For `CON=Cc1cc(F)c(-n2ccc(-c3ccc(C)c(CNC(=O)OC)c3)n2)c(F)c1` [Compound 79], the “Test D disease control rating” value in the test with Phakopsora pachyrhizi was 100%. In test [1], the “Test B disease control rating” value is 100%.
`CCON=Cc1cc(F)c(-n2ccc(-c3ccc(C)c(CNC(=O)OC)c3)n2)c(F)c1` [Compound 80]: in the test on Phakopsora pachyrhizi, the “Test D disease control rating” value worked out at 100%. The “Test B disease control rating” value in test [1] turned out to be 100%.
Turning to `C=CCON=Cc1cc(F)c(-n2ccc(-c3ccc(C)c(CNC(=O)OC)c3)n2)c(F)c1` [Compound 81], in the test with Phakopsora pachyrhizi, the “Test D disease control rating” value is 100%. For the same molecule, in test [1], the “Test B disease control rating” value amounted to 92%.
Regarding `COC(=O)NCc1cc(-c2ccn(-c3c(F)cc(C=NOC(C)C)cc3F)n2)ccc1C` [Compound 82], the “Test D disease control rating” value in the test on Phakopsora pachyrhizi is recorded as 100%. The “Test B disease control rating” value in test [1] turned out to be 95%.
As to `CON=C(C)c1cc(F)c(-n2ccc(-c3ccc(C)c(CNC(=O)OC)c3)n2)c(F)c1` [Compound 83, methyl N-[[5-[1-[2,6-difluoro-4-[1-(methoxyimino)ethyl]phenyl]-1H-pyrazol-3-yl]-2-methylphenyl]methyl]carbamate], the pest or weed control at 10 ppm (in the test with Phakopsora pachyrhizi; in test [1]) was 100% each time.
As to `CCON=C(C)c1cc(F)c(-n2ccc(-c3ccc(C)c(CNC(=O)OC)c3)n2)c(F)c1` [Compound 84], the “Test D disease control rating” value in the test with Phakopsora pachyrhizi came out at 100%. The “Test B disease control rating” value in test [1] was 100%.
Regarding `C=CCON=C(C)c1cc(F)c(-n2ccc(-c3ccc(C)c(CNC(=O)OC)c3)n2)c(F)c1` [Compound 85], the “Test D disease control rating” value in the test with Phakopsora pachyrhizi was 98%. In addition, the “Test B disease control rating” value in test [1] is recorded as 90%.
The corresponding values for `COC(=O)NCc1cc(-c2ccn(-c3c(F)cc(C(C)=NOC(C)C)cc3F)n2)ccc1C` [Compound 86] are 100% and 99%.
As for `COC(=O)NCc1cc(-c2ccn(-c3c(F)cc(C(F)F)cc3F)n2)ccc1C` [Compound 87, methyl N-[[5-[1-[4-(difluoromethyl)-2,6-difluorophenyl]-1H-pyrazol-3-yl]-2-methylphenyl]methyl]carbamate], the pest or weed control at 10 ppm (in the test on Phakopsora pachyrhizi; in test [1]) was 100% each time.
In the case of `COC(=O)NCc1cc(-c2ccn(-c3c(F)cc(C4CC4(Cl)Cl)cc3F)n2)ccc1C` (stereo not drawn) [Compound 88], the “Test D disease control rating” value in the test on Phakopsora pachyrhizi was found to be 100%. Also, the “Test B disease control rating” value in test [1] amounted to 100%.
On to `COC(=O)NCc1cc(-c2ccn(-c3c(F)cc(OC4CCCC4)cc3F)n2)ccc1C` [Compound 90], for which the “Test D disease control rating” value with Phakopsora pachyrhizi was 100%. In test [1], the “Test B disease control rating” value turned out to be 86%.
On to `COC(=O)NCc1cc(-c2ccn(-c3c(F)cc(OC4CCCCC4)cc3F)n2)ccc1C` [Compound 91], for which, in the test with Phakopsora pachyrhizi, the “Test D disease control rating” value was found to be 79%. Further, the “Test B disease control rating” value in test [1] was determined as 86%.
Regarding `CCC(C)Oc1cc(F)c(-n2ccc(-c3ccc(C)c(CNC(=O)OC)c3)n2)c(F)c1` (stereo not drawn) [Compound 92], in the test on Phakopsora pachyrhizi, the “Test D disease control rating” value was 100%. In test [1], the “Test B disease control rating” value worked out at 100%.
As for `COC(=O)NCc1cc(-c2ccn(-c3c(F)cc(OC(C)(C)C)cc3F)n2)ccc1C` [Compound 93], the “Test D disease control rating” value in the test on Phakopsora pachyrhizi is reported as 100%. Moreover, in test [1], the “Test B disease control rating” value is 100%.
As for `C=CCOc1cc(F)c(-n2ccc(-c3ccc(C)c(CNC(=O)OC)c3)n2)c(F)c1` [Compound 94], in the test on Phakopsora pachyrhizi, the “Test D disease control rating” value is on record as 99%. The “Test B disease control rating” value in test [1] turned out to be 85%.
The corresponding values for `COC(=O)NCc1cc(-c2ccn(-c3c(F)cc(C(C)(C)O)cc3F)n2)ccc1C` [Compound 95] are 53% and 0%.
In the same order, the values of `COC(=O)NCc1cc(-c2ccn(-c3c(F)cc(C(C)O)cc3F)n2)ccc1C` (stereo not drawn) [Compound 96] are 79% and 68%.

What is called pest or weed control is how far the test organism was held down. The low end stands for weak suppression, the high end for strong suppression.
